Our source for the Ki and inhibition values is US8846937B2, “Mono quaternary ammonium salts and methods for modulating neuronal nicotinic acetylcholine receptors” (University of Kentucky Research Foundation, priority 2006, dated 2014).

One may read the Ki as a measure of affinity in units of concentration, obtained from inhibition or displacement. One may read the inhibition as the drop in the measured response relative to a control, in per cent. Low readings indicate little suppression, high ones strong suppression.

Assay [1] deals with T1, Rat Striatal Nicotinic Receptors ([^3H]NIC binding) (Rattus norvegicus, UniProt P09483+P12390).
T1 construct: Whole brain, excluding cortex and cerebellum, was homogenized; from tissue; host or cells: rat brain membranes (whole brain excluding cortex and cerebellum)
Description: Inhibition of [^3H]nicotine binding to brain membranes. To be noted: 3 nM [^3H]NIC; for Ki: full concentration effect; for inhibition at 0.1 µM: % inhibition at 100 nM analog, nonspecific 10 μM nicotine. The protocol:
(§1) Test compounds of Formula (I), representing the mono quaternary nicotine analogs of the present invention, were evaluated to determine the effect of a test compound on nicotine-binding and methyllycaconitine-binding mediated by nicotine acetylcholine receptors.
(§2) Homogenate was centrifuged (25,000 g, 15 min, 4° C.). Pellets were resuspended in 20 volumes of buffer and incubated at 37° C., for 10 min, cooled to 4° C. and centrifuged (25,000 g, 15 min, 4° C.). Pellets were resuspended and centrifuged using the same conditions. […] Upon use, final pellets were resuspended in ˜20 volumes of assay buffer. Samples (250 μl) contained 100-140 μg of membrane protein, 3 nM [^3H]nicotine or 3 nM [^3H]methyllycaconitine (MLA), and test compounds of Formula (I) (100 nM) in assay buffer containing 50 mM Tris. A control sample absent test compounds of Formula (I) was also prepared. In the [^3H]nicotine-binding assay and [^3H]MLA-binding assay, nonspecific-binding was determined in the presence of 10 μM nicotine and 10 μM MLA, respectively. Incubations proceeded for 60 min at a room temperature using 96-well plates, and were terminated by harvesting on Unifilter-96 GF/B filter plates presoaked in 0.5% polyethylenimine, using a Packard FilterMate harvester. After washing 5 times with 350 μl ice-cold assay buffer, the filter plates were dried (60 min, 4° C.), bottom-sealed, and filled with Packard's MicroScint 20 cocktail (40 μl/well). After 60 min, filter plates were top-sealed, and levels of radioactivity were determined using a Packard TopCount. Protein concentrations were determined using the Bradford dye-binding procedure using bovine serum albumin as a standard protein.
Specific binding in the [^3H]NIC binding assay is calculated as the difference between the total binding of 3 nM [^3H]NIC and nonspecific binding in the presence of 10 μM cold nicotine. […] Analog-induced inhibition of nicotine-evoked [^3H]DA release is calculated as a percent of that in the absence of the mono quaternary ammonium analog. ND indicates not determined.

Assay [2] addresses T2, Rat Striatal Nicotinic Receptors ([^3H]MLA binding) (Rattus norvegicus, UniProt Q05941).
T2 construct: Whole brain, excluding cortex and cerebellum, was homogenized; from tissue; host or cells: rat brain membranes (whole brain excluding cortex and cerebellum)
Description: Inhibition of [^3H]methyllycaconitine (MLA) binding to brain membranes. To be noted: for Ki: full concentration effect, 2.5 nM [^3H]MLA (footnote); for inhibition at 0.1 µM: % inhibition at 100 nM analog, 2.5 nM [^3H]MLA, nonspecific 1 μM MLA (footnote). As for the experimental part: as §1
as §2, with “Samples (250 μl) contained 100-140 μg of membrane protein, 3 nM [^3H]nicotine or 3 nM [^3H]methyllycaconitine (MLA), and test compounds of Formula (I) (100 nM) in assay buffer containing 50 mM Tris.” left out, “In the [^3H]nicotine-binding assay and [^3H]MLA-binding assay, nonspecific-binding was determined in the presence of 10 μM nicotine and 10 μM MLA, respectively.” left out, “protein. […]” for “protein.”

For assay [3], the system named is nicotinic receptors, NIC-evoked [^3H]DA release from rat striatal slices. Description: Inhibition of nicotine-evoked [^3H]dopamine release from superfused rat striatal slices. The assay is classed as cell-based. Particulars: 1 h, 100 nM analog superfused 60 minutes prior to NIC (10 μM). As for the experimental part:
Rat striatal slices (500 μm thickness, 6-8 mg wet weight) were incubated for 30 minutes in Krebs buffer (118 mM NaCl, 4.7 mM KCl, 1.2 mM MgCl2, 1.0 mM NaH2PO4, 1.3 mM CaCl2, 11.1 mM glucose, 25 mM NaHCO3, 0.11 mM L-ascorbic acid, and 0.004 mM disodium EDTA at pH 7.4, and saturated with 95% O2/5% CO2) in a metabolic shaker at 34° C. Slices were rinsed with 15 mL of fresh buffer, and were incubated for an additional 30 minutes in fresh buffer containing 0.1 μM [^3H]dopamine (DA; 6 slices/3 mL). Subsequently, slices were rinsed with 15 mL of fresh buffer and transferred to a glass superfusion chamber. Slices were superfused (1.0 mL/min) for 60 minutes with Krebs buffer containing nomifensine (10 μM) and pargyline (10 μM), and maintained at 34° C., pH 7.4, with continual aeration (95% O2/5% CO2). Two five minute samples (5 mL each) were collected to determine basal outflow of [^3H]DA. The test compounds of Formula (I) were added to the superfusion buffer after the collection of the second sample, and were maintained in the buffer until 12 consecutive five minute samples were collected. Subsequently, S-(−)-nicotine (10 μM) was added to the buffer, and an additional 12 consecutive five minute samples were collected. At the end of the experiment, each slice was solubilized, and the [^3H]content of the tissue determined.
Radioactivity in the superfusate and tissue samples was determined by liquid scintillation spectroscopy. Fractional release of tritium collected in each sample was divided by the total tritium present in the tissue at the time of sample collection, and the fractional release of tritium collected was expressed as a percentage of total tritium. Basal [^3H]outflow was calculated from the average of the tritium collected in the two five minute samples just before addition of a test compound of Formula (I). The sum of the increase in collected tritium resulting from either exposure to a test compound of Formula (I), or exposure to S(−) nicotine in the absence and presence of a test compound of Formula (I) equaled total [^3H]overflow. [^3H]Overflow was calculated by subtracting the [^3H]outflow during an equivalent period of pre-stimulation from the values in samples collected during and after drug exposure. Inasmuch as the radio-labeled compounds were not separated and identified, the tritium collected in superfusate is referred to as either [^3H]outflow or [^3H]overflow, rather than as [^3H]DA. [^3H]Overflow primarily represents [^3H]DA in the presence of nomifensine and pargyline in the superfusion buffer.
The quaternary analogs of Formula (I) were also evaluated for their ability to inhibit NIC-evoked [^3H]DA release. In these experiments, the striatal slices were superfused for 60 minutes with 100 nM concentration of the quaternary analogs prior to NIC (10 μM) exposure. Antagonist activity was evaluated by comparing the NIC-evoked [^3H]overflow in the absence and presence of the analogs. The relative order of potency of the quaternary analogs of Formula (I) for inhibition of NIC-evoked [^3H]DA release from rat striatal slices is illustrated in Table 1.
^aData are % inhibition at 100 nM concentration of the mono quaternary analogs for at least 1-3 independent experiments; with the exception of when a Ki value in μM is provided, in which case a full concentration effect was evaluated. Specific binding in the [^3H]NIC binding assay is calculated as the difference between the total binding of 3 nM [^3H]NIC and nonspecific binding in the presence of 10 μM cold nicotine. Specific binding for the [^3H]MLA binding assay is calculated as the difference between the total binding of 2.5 nM [^3H]MLA to the receptors alone and its nonspecific binding in the presence of 1 μM cold MLA. Analog-induced inhibition of nicotine-evoked [^3H]DA release is calculated as a percent of that in the absence of the mono quaternary ammonium analog. ND indicates not determined.

T2 sequence (Q05941 23-502): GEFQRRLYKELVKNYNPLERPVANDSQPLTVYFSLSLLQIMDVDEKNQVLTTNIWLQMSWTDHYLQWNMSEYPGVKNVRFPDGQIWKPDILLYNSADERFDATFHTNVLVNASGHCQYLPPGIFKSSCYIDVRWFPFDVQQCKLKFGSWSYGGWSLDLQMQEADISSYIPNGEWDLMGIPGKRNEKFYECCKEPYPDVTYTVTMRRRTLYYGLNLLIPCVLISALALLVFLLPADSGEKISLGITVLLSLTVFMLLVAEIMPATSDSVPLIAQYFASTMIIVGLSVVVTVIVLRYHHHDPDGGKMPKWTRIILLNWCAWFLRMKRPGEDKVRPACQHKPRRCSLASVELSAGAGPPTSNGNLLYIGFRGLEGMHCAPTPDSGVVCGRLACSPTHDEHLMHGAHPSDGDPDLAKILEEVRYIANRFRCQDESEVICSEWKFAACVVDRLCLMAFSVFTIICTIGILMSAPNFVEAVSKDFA
T1 sequence (P09483 31-630): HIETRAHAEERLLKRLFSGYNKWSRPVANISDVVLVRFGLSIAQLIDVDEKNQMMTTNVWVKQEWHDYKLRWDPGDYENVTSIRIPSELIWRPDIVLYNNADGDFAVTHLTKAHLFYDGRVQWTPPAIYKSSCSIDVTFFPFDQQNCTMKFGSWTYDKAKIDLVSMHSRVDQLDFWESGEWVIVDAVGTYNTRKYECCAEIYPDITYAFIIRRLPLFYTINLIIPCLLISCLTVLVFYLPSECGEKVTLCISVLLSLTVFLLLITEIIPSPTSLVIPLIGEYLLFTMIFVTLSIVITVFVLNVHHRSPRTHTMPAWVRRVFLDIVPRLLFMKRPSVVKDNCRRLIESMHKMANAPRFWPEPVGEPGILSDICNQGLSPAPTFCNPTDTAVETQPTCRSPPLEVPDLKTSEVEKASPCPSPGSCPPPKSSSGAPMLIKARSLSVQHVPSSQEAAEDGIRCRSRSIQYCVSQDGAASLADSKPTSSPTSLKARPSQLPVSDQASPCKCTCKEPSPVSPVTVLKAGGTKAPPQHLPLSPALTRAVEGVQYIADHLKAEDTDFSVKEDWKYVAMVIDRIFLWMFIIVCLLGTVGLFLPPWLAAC
T1 sequence (P12390 25-500): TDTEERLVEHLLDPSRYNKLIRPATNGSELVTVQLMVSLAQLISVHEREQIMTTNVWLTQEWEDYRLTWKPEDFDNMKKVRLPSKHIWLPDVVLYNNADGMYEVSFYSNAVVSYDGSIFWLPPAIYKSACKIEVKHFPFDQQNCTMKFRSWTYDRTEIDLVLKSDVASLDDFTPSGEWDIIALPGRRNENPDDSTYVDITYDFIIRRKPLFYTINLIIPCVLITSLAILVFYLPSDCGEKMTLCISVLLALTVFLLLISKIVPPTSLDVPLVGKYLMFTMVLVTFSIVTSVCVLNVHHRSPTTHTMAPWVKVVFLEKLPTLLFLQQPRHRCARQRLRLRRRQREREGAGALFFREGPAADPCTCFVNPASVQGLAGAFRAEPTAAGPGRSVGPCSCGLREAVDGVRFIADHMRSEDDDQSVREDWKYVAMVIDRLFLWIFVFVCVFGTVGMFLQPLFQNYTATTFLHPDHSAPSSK

As for `Cc1cc[n+](CCCCCCCCc2ccccc2)cc1`, the Ki in assay [1] is over 100 µM; in assay [2] it was 27 µM. Also, 0.1 µM produced 12% inhibition in assay [3].
Turning to `Cc1cccc[n+]1CCCCCc1ccc(-c2ccccc2)cc1`, the inhibition at 0.1 µM in assay [3] stood at 45%.
Consider `Cc1cccc[n+]1CCCCCCCCc1ccccc1`, for which the inhibition at 0.1 µM in assay [1] is 0%; in assay [2], 0%; in assay [3], 62%.
`Cc1cccc[n+]1CCCC#Cc1ccc(-c2ccccc2)cc1`: the inhibition at 0.1 µM in assay [1] turned out to be 2%; in assay [2], 7%; in assay [3], 45%.
`CCCCc1ccc(C#CCC[n+]2cc(C)cc(C)c2)cc1`: the inhibition at 0.1 µM in assay [1] and in assay [2] was 0% each time.
For the compound `Cc1cc(C)c[n+](CCCC#Cc2ccc(-c3ccccc3)cc2)c1`, the inhibition at 0.1 µM in assay [1] came to 8%; in assay [2] it was 3%; in assay [3], 51%.
Turning to `c1ccc(-c2ccc(CCCCC[n+]3cccc4ccccc43)cc2)cc1`, the inhibition at 0.1 µM in assay [3] was determined as 61%.
On to `Cc1cc[n+](CCCC#Cc2ccc(-c3ccccc3)cc2)c(C)c1`, for which the inhibition at 0.1 µM amounted to 2% in assay [1], 6% in assay [2] and 5% in assay [3].
For `Cc1ccc[n+](CCCCCCCCCCCCCc2cccnc2)c1` the same measures were 0%, 2% and 31%.
As for `CCCCc1ccc(C#CCC[n+]2cccc(CCCO)c2)cc1`, the inhibition at 0.1 µM in assay [1] and in assay [2] was 0% each time.
For `C(#Cc1ccc(-c2ccccc2)cc1)CCC[n+]1cccc(-c2ccccc2)c1`, the inhibition at 0.1 µM in assay [1] is 8%; in assay [2] it was 6%.
Regarding `c1cncc(CCCCCCCCCCCCC[n+]2ccc3c(c2)CCCC3)c1`, the values for the Ki in assay [1] and in assay [2] were over 100 µM and 7.2 µM, respectively. This compound also registered an inhibition at 0.1 µM in assay [3] of 0%.
As to `CCCCc1ccc(C#CCC[n+]2ccc3c(c2)CCCC3)cc1`, the Ki in assay [1] was over 100 µM; in assay [2], 3.7 µM. The compound further displayed an inhibition at 0.1 µM in assay [3] of 70%.
`C(#Cc1ccc(-c2ccccc2)cc1)CCC[n+]1cccc2ccccc21`: the inhibition at 0.1 µM in assay [1] came out at 1%; in assay [2], 7%; in assay [3], 23%.
In the case of `Cc1cc[n+](CCCCCc2ccc(-c3ccccc3)cc2)cc1C`, the inhibition at 0.1 µM in assay [3] was 38%.
Regarding `CCCCc1ccc(C#CCC[n+]2cccc(CC)c2)cc1`, the inhibition at 0.1 µM in assay [1] and in assay [2] was 0% throughout.
`Cc1cc(C)c[n+](CCCCCc2ccc(-c3ccccc3)cc2)c1` returned an inhibition at 0.1 µM in assay [3] of 51%.
Take `CCCCc1ccc(C#CCC[n+]2cccc(C)c2)cc1`: the figures for the inhibition at 0.1 µM in assay [1], in assay [2] and in assay [3] were 0%, 0% and 11%, respectively.
For `Cc1ccc[n+](CCCCCc2ccc(-c3ccccc3)cc2)c1`, the inhibition at 0.1 µM in assay [1] turned out to be 4%; in assay [2], 7%; in assay [3], 55%.
`Cc1ccc[n+](CCCC#Cc2ccc(-c3ccccc3)cc2)c1`: the inhibition at 0.1 µM in assay [1] worked out at 0%; in assay [2], 2%; in assay [3], 41%.
As to `c1ccc(-c2ccc(CCCCC[n+]3ccccc3)cc2)cc1`, 0.1 µM produced 30% inhibition in assay [3].
With `c1ccc(-c2ccc(CCCCC[n+]3ccc4ccccc4c3)cc2)cc1`, the inhibition at 0.1 µM in assay [1] came out at 0%; in assay [2] it was 6%.
For `Cc1cc(C)c[n+](CCCCCCCCCCCCCc2cccnc2)c1`, the inhibition at 0.1 µM in assay [1] was 0%; in assay [2] it was 0%; in assay [3], 35%.
Turning to `CCCCc1ccc(CCCC[n+]2ccc(C)c(C)c2)cc1`, the inhibition at 0.1 µM in assay [1] and in assay [2] was 0% each time.
Take `CCCCc1ccc(CCCC[n+]2cccc(CCCO)c2)cc1`: the inhibition at 0.1 µM in assay [1] is 0%; in assay [2] it was 0%; in assay [3], 64%.
`Cc1cc[n+](CCCCCc2ccc(-c3ccccc3)cc2)c(C)c1`: the inhibition at 0.1 µM in assay [3] amounted to 39%.
The compound `Cc1cc[n+](CCCCCc2ccc(-c3ccccc3)cc2)cc1` registered an inhibition at 0.1 µM in assay [3] of 18%.
As for `CCCCc1ccc[n+](CCCCCc2ccc(-c3ccccc3)cc2)c1`, the inhibition at 0.1 µM in assay [3] worked out at 43%.
Turning to `C(#Cc1ccc(-c2ccccc2)cc1)CCC[n+]1ccc2ccccc2c1`, the inhibition at 0.1 µM in assay [1] turned out to be 0%; in assay [2], 6%.
For `CCCCc1ccc(C#CCC[n+]2ccc(C)c(C)c2)cc1` the same measures were 0% and 10%.
Taken in the same sequence, the figures for `CCCCc1ccc(CCCC[n+]2cc(C)cc(C)c2)cc1` were 0% and 0%.
Turning to `CCCCc1ccc(CCCC[n+]2ccc3c(c2)CCCC3)cc1`, the Ki in assay [1] was over 100 µM; in assay [2], 14 µM.
Regarding `CCCCc1ccc(CCCC[n+]2ccccc2C)cc1`, the inhibition at 0.1 µM in assay [1] and in assay [2] was 0% in each case.
For `CN1CCC[C@H]1c1ccc[n+](CCCCCc2ccc(-c3ccccc3)cc2)c1`, the inhibition at 0.1 µM in assay [3] is 51%.
